Results reported in ChEMBL document CHEMBL3227944, “Beta-adrenoceptor studies. 5. 1H NMR and IR spectroscopic analysis of the conformation of the hydrohalide salts of beta-adrenoceptor-blocking aryloxypropanolamines. Evidence for a seven-membered ring structure with participation of two hydrogen bonds” (J Med Chem, 1979).
The source made the active and inactive calls. No cut-off for these calls is given here.

Legend:
Cavia porcellus [1] = organism: Cavia porcellus; assay: Competitive antagonist activity at guinea pig atrium beta-adrenoceptor assessed as inhibition of isoprenaline-induced effect up to 3 X 10^-5 M; format: tissue-based; settings: Cardiac atrium
Cavia porcellus [2] = organism: Cavia porcellus; assay: Competitive antagonist activity at guinea pig trachea beta-adrenoceptor assessed as inhibition of isoprenaline-induced effect up to 10^-4 M; format: tissue-based
[3] = Antagonist activity at guinea pig atrium beta-adrenoceptor assessed as inhibition of isoprenaline-induced effect; format: tissue-based, Cavia porcellus, Cardiac atrium
[4] = Antagonist activity at guinea pig trachea beta-adrenoceptor assessed as inhibition of isoprenaline-induced effect; format: tissue-based, Cavia porcellus

Row | Structure (SMILES) | Activity (Cavia porcellus [1]) | Activity (Cavia porcellus [2]) | pA2 [3] | pA2 [4]
1 | Cc1cccc(OCC(Cl)CNC(C)C)c1 (configuration not stated) | inactive | inactive | – | –
2 | Cc1cccc(OCC(CCl)NC(C)C)c1.Cl (configuration not stated) | – | inactive | 4.86 | –
3 | COCC(COc1cccc(C)c1)NC(C)C.Cl (configuration not stated) | – | inactive | 4.66 | –
4 | Cc1cccc(OCC(O)CNC(C)C)c1.Cl (configuration not stated) | – | – | 8.76 | 7.97
5 | COC(CNC(C)C)COc1cccc(C)c1.Cl (configuration not stated) | – | inactive | 5.41 | –
6 | Cc1cccc(OCC(CO)NC(C)C)c1.Cl (configuration not stated) | – | – | 5.08 | 5.21
